# Like-named read-outs stand apart in the source and are kept apart here.
# What was measured:
# [1] = tested on: spontaneous uterine contractions; assay: Spontaneous uterine activity in late-term anaesthetized pregnant rat; type: in vivo; conditions: late-term pregnant rats
# Text: The tocolytic effects of compound I and compound II were investigated in a model of spontaneous uterine activity in late-term (19-21 days of gestation) anaesthetized pregnant rat (Kawarabayashi et al. Am. J. Obstet. Gynecol. 175:1348-1355 (1996) and Shinkai et al. J. Pharm. Pharmacol. 52:1417-1423 (2000)). Briefly, late-term pregnant female rats were anaesthetized with urethane. One pregnant uterine horn was exposed and a polyethylene catheter bearing on the tip a latex balloon filled with saline was inserted into the lumen. The catheter was connected to an amplifying/recording system via a pressure-transducer. […] The percent variation of the AUC values relative to the spontaneous uterine response observed after each compound administration was calculated in comparison to the value recorded before the first dose-administration (basal value). The effect of compound I or compound II was evaluated by comparing pre- and post-treatment luminal uterine pressure values. For the oral administration the same computation procedure was applied at different time points after treatment. Statistical differences between treatment groups at each time-point were determined by using one-way ANOVA followed by Tukey test. Both compounds intravenously or orally administered were able to markedly reduce spontaneous uterine
# [2] = In vivo conversion of compound I to compound II
# Experimental: The invention is based on the discovery that compound I ((3S)-3-({[(2S)-3-(biphenyl-4-ylsulfonyl)-1,3-thiazolidin-2-yl]carbonyl}-amino)-3-(4-fluorophenyl)propyl L-valinate, represented by formula I, below) and salts thereof are converted in vivo to 3-([1,1′-biphenyl]-4-ylsulfonyl)-N-[1-(4-fluorophenyl)-3-hydroxypropyl]-1,3-thiazolidine-2-carboxamide (represented by formula II, below).
# Compound II is a competitive and reversible prostaglandin F2α receptor antagonist (human FP2α receptor Ki=6 nM) that is under development for the management of preterm labor by inhibition of premature uterine contractions.
# [3] = tested on: Caco-2 cell monolayer; assay: Bidirectional permeability across Caco-2 cell monolayers; type: in vitro ADME, human
# Experimental: Compound I was dissolved in HBSS buffer (1% DMSO final concentration) at the concentrations of 1.5, 3 and 6 μM. Each concentration/sampling time was run in duplicate well. The test was performed in a gradient pH: the apical compartment (mucosal) was at pH 6.5, the basolateral compartment (serosal) was at pH 7.4.
# Apical to basolateral (A→B, mucosal to serosal) transport: 200 μL of each concentration of compound I was added to the apical compartment and 400 μL of HBSS was added to the basolateral compartment. The plates were incubated at 37° C. An aliquot of the basolateral compartment was sampled after 60 and 120 min (t=60 and t=120). An aliquot of the apical compartment was sampled at the starting time (t=0) and after 120 min. (t=120).
# Basolateral to apical (B→A, serosal to mucosal) transport: 400 μL of each concentration of compound I was added to the basolateral compartment and 200 μL of HBSS was added to the apical compartment. The plates were incubated at 37° C. An aliquot of the apical compartment was sampled after 60 and 120 min (t=60 and t=120). An aliquot of the basolateral compartment was sampled at the starting time (t=0) and after 120 min. (t=120). All samples were analyzed by LC/MS monitoring both compound I and the appearance of compound II.
# Compound II was dissolved in HBSS buffer (1% DMSO final concentration) at the concentrations of 1.5, 3 and 6 μM. Each concentration/sampling time was run in duplicate well. The test was performed in a gradient pH: the apical compartment (mucosal) was at pH 6.5, the basolateral compartment (serosal) was at pH 7.4.
# Apical to basolateral (A→B, mucosal to serosal) transport: 200 μL of each concentration of compound II was added to the apical compartment and 400 μL of HBSS was added to the basolateral compartment. The plates were incubated at 37° C. An aliquot of the basolateral compartment was sampled after 60 and 120 min (t=60 and t=120). An aliquot of the apical compartment was sampled at the starting time (t=0) and after 120 min. (t=120).
# Basolateral to apical (B→A, serosal to mucosal) transport: 400 μL of each concentration of compound II was added to the basolateral compartment and 200 μL of HBSS was added to the apical compartment. The plates were incubated at 37° C. An aliquot of the apical compartment was sampled after 60 and 120 min (t=60 and t=120). An aliquot of the basolateral compartment was sampled at the starting time (t=0) and after 120 min. (t=120). All samples were analyzed by LC/MS monitoring compound II.
# [4] = Non-specific binding to cell-free transwells; type: in vitro ADME; conditions: 1.5, 3 and 6 μM; apical pH 6.5, basolateral pH 7.4
# Experimental: Non-specific binding and recovery was assessed across cell-free transwells.
# Compound I was tested at 1.5, 3 and 6 μM in duplicate cell-free transwells. The test was performed in a pH gradient between the apical and the basolateral compartment. […] The following sampling times were performed: 60 and 120 min for the basolateral compartment (receiver) and 120 min for the apical compartment (donor). Samples obtained were analyzed by LC-MS, both compound I and compound II were monitored in order to assess percent of recovery.
# [5] = target: T1, PepT1 transporter (Homo sapiens, UniProt P46059); assay: Mucosal-to-serosal transport in Caco-2 after pre-treatment with PepT1 substrate Gly-Sar; type: in vitro ADME
# T1 construct: host or cells: Caco-2
# T1 sequence (P46059 1-708): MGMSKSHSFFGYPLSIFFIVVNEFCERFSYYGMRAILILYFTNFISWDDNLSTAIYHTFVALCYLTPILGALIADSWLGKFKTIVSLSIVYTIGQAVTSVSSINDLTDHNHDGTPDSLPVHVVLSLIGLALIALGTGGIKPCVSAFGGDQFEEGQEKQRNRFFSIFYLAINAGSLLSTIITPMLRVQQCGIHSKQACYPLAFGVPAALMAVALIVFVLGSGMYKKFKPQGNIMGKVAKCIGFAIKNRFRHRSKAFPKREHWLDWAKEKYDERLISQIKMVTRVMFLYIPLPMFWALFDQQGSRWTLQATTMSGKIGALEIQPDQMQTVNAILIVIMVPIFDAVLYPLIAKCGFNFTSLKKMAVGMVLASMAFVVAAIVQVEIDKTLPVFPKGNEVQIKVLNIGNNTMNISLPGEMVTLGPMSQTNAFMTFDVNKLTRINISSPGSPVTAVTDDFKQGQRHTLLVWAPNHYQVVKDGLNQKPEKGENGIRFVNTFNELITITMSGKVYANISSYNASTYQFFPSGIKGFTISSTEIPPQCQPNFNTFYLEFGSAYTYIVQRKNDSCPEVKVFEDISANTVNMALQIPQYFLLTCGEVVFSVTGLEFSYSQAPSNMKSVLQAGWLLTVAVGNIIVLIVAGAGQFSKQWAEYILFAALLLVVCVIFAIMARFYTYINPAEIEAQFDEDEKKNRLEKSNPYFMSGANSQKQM
# Experimental: The differentiated cells were pre-treated for 30 min. with 10 mM of Gly-Sar in order to block the active transporter PepT1.
# Compound I was dissolved in HBSS buffer (1% DMSO final concentration) at the concentrations of […]. Each concentration/sampling time was run in duplicate well. The test was performed in a gradient pH: the apical compartment (mucosal) was at pH 6.5, the basolateral compartment (serosal) was at pH 7.4.
# Apical to basolateral (A→B, mucosal to serosal) transport: 200 μL of each concentration of compound I was added to the apical compartment and 400 μL of HBSS was added to the basolateral compartment. The plates were incubated at 37° C. An aliquot of the basolateral compartment was sampled after 60 and 120 min (t=60 and t=120). An aliquot of the apical compartment was sampled at the starting time (t=0) and after 120 min. (t=120). All samples were analyzed by LC/MS monitoring both compound I and the appearance of compound II.
# [6] = Stability in HBSS buffer of the Caco-2 experiments; type: in vitro ADME; conditions: HBSS buffer (2% DMSO final concentration) at 37° C. for 60 and 120 minutes
# Experimental: Stability of both compound I and compound II was assessed during the test. […] An aliquot of each solution was sampled at time zero (t=0) to assess the starting concentrations of the compounds. The solutions were incubated at 37° C. for the duration of the transport experiment. An aliquot of each solution was sampled at the end of experiment (t=120) to assess the final concentrations of compound I and compound II. Samples were analyzed by LC-MS.
# [7] = Solubility in water, FaSSIF and FeSSIF; type: physicochemical
smiles,measurement,setting,value
"CC(C)[C@H](N)C(=O)OCC[C@H](NC(=O)[C@@H]1SCCN1S(=O)(=O)c1ccc(-c2ccccc2)cc1)c1ccc(F)cc1 [Compound I, (3S)-3-({[(2S)-3-(biphenyl-4-ylsulfonyl)-1,3-thiazolidin-2-yl]carbonyl}-amino)-3-(4-fluorophenyl)propyl L-valinate]",Effect on spontaneous uterine contraction (FIG. 2),[1],dose-dependent and reversible effect
same,Conversion to compound II after gastro-intestinal tract administration,[2],rapidly converted to compound II
same,Conversion of compound I into compound II in Caco-2 test,[3],confirmed
same,"Compound I in receiving (apical) compartment, basolateral to apical",[3]; 60 and 120 minutes,not detected
same,"Compound I in receiving (basolateral) compartment, apical to basolateral",[3]; 60 and 120 minutes,not detected
same,Recovery of compound I in apical compartment at end of apical to basolateral experiment,[3]; 120 min,low recovery
same,Passage through the Caco-2 cell monolayer,[3]; bi-directional test,did not pass through the cell monolayer
same,Non-specific binding in the Caco-2 test system without cells,[4],excluded
same,PepT1 mediation of transport across Caco-2 monolayers,[5],likely not mediated by PepT1
same,Compound I in receiving compartment after Gly-Sar pre-treatment,"[5]; 10 mM Gly-Sar, A→B, 60 and 120 min",not detected
same,Stability in HBSS buffer,[6],stable
same,solubility,"[7]; FaSSIF, pH 6.5 (fasted state), read-out: Solubility in FaSSIF pH 6.5",70 µg/mL
same,solubility,"[7]; FeSSIF, pH 5.0 (fed state), read-out: Solubility in FeSSIF pH 5.0",90 µg/mL
